Experimental data: patent US12162867B2, “Inhibitors of RNA helicase DHX9 and uses thereof” (ACCENT THERAPEUTICS, INC., priority 2022, dated 2024)

Tests used:
Format in all cases: cell-based
[1] = tested on: circBRIP1 in HCT116 cells; experiment: DHX9 circBRIP1 cellular target engagement SYBR Green assay (qPCR); conditions: Homo sapiens, HCT-116, circBRIP1, HCT116 cells; SyBr assay (marked ^+); read-out: DHX9 Cellular Target Engagement EC50
LS411N cells = experiment: DHX9 cellular proliferation assay (CellTiter-Glo), LS411N (CRC-MSI); conditions: Homo sapiens, LS-411N, LS411N, CRC-MSI-H; performed at Pharmaron; read-out: LS411N (CRC-MSI-H) Antiproliferative IC50
NCI-H747 cells = experiment: DHX9 cellular proliferation assay (CellTiter-Glo), NCI-H747 (CRC-MSS); conditions: Homo sapiens, NCI-H747, NCI-H747, CRC-MSS; performed at Pharmaron; read-out: H747 (CRC-MSS) Antiproliferative IC50

SMILES | EC50 [1] [nM] | IC50 (LS411N cells) [nM] | IC50 (NCI-H747 cells) [nM]
CS(=O)(=O)Nc1cc(Cl)cc(NC(=O)c2cnn(-c3ccc(N4CC5CCC(C4)O5)cn3)c2)c1 [Example 191] | 432 | > 10000 | > 10000
CS(=O)(=O)Nc1cc(Cl)cc(NC(=O)c2cnn(-c3ncc(F)cc3OCc3cccc(F)c3)c2)c1 [Example 202] | 103 | 111 | 8560
Cc1ccc(OCc2cccc(F)c2)c(-n2cc(C(=O)Nc3cc(Cl)cc(NS(C)(=O)=O)c3)cn2)n1 [Example 204] | 53.9 | 54.8 | > 10000
CCOc1cnc(-n2cc(C(=O)Nc3cc(Cl)cc(NS(C)(=O)=O)c3)cc2C)nc1 [Example 208] | 125 | 218 | > 10000
CS(=O)(=O)Nc1cc(Cl)cc(NC(=O)c2cnn(-c3ccccc3OCc3cccc(F)c3)c2)c1 [Example 210] | 77.2 | 111 | > 10000
CNC(=O)c1sc(C(=O)Nc2cc(Cl)cc(NS(C)(=O)=O)c2)cc1-c1ncccc1OCc1ccccc1 [Example 212] | 32.6 | 202 | > 10000
CN(C)C(=O)c1sc(C(=O)Nc2cc(Cl)cc(NS(C)(=O)=O)c2)cc1-c1ncccc1OCc1ccccc1 [Example 213] | 74.6 | 173 | > 10000
CS(=O)(=O)Nc1cc(F)cc(NC(=O)c2cc(-c3ncccc3OCc3ccccc3)cs2)c1 [Example 214] | 106 | 203 | 7150
CS(=O)(=O)Nc1cc(Cl)cc(NC(=O)c2cc(-c3ncccc3OCc3cnco3)cs2)c1 [Example 215] | 23.7 | 118 | > 10000
CS(=O)(=O)Nc1cc(Cl)cc(NC(=O)c2cc(-c3ncccc3OCc3ccccc3)c(CO)s2)c1 [Example 216] | 12.7 | 38.5 | > 10000
CS(=O)(=O)Nc1cc(Cl)cc(NC(=O)c2cc(-c3ncccc3OCc3cccnc3)cs2)c1 [Example 217] | 13.6 | 53.3 | > 10000
CCS(=O)(=O)Nc1cc(Cl)cc(NC(=O)c2cc(-c3ncccc3C)cs2)c1 [Example 224] | 55.8 | 122 | > 10000
CS(=O)(=O)Nc1cc(Cl)cc(NC(=O)c2cc(-c3ncc(F)cc3OCc3cncc(F)c3)cs2)c1 [Example 225] | 19.9 | 43.9 | > 10000
Cc1sc(C(=O)Nc2cc(Cl)cc(NS(C)(=O)=O)c2)cc1-c1ncccc1O [Example 227] | 40.3 | 879 | > 10000
CS(=O)(=O)Nc1cc(Cl)cc(NC(=O)c2cc(-c3ncccc3COc3cc(F)cc(F)c3)cs2)c1 [Example 228] | 48.3 | 117 | > 10000
CC(C)c1sc(C(=O)Nc2cc(Cl)cc(NS(C)(=O)=O)c2)cc1-c1ccccn1 [Example 233] | 460 | 356 | > 10000
CS(=O)(=O)Nc1cc(Cl)cc(NC(=O)c2cc(-c3ncccc3Nc3ncccn3)cs2)c1 [Example 237] | 1910 | 249 | 3780
CS(=O)(=O)Nc1cc(Cl)cc(NC(=O)c2cnn(-c3ncc(F)cc3CCc3cccc(F)c3)c2)c1 [Example 251] | > 10000 | 432 | > 10000
Cc1cccc(OCc2cccc(F)c2)c1-n1cc(C(=O)Nc2cc(Cl)cc(NS(C)(=O)=O)c2)cn1 [Example 255] | 378 | 74.3 | > 10000
Cc1cc(C(=O)Nc2cc(Cl)cc(NS(C)(=O)=O)c2)cn1-c1ccc(N2CC3(COC3)C2)cn1 [Example 276] | 64.2 | 61.7 | > 10000

SMILES | EC50 [1] [nM] | IC50 (LS411N cells) [nM] | IC50 (NCI-H747 cells) [nM]
Cn1cc(C(=O)Nc2cc(Cl)cc(NS(C)(=O)=O)c2)cc1-c1ccc(N2CC3(COC3)C2)cn1 [Example 277] | 47.6 | 66.7 | 4700
Cn1cc(C(=O)Nc2cc(Cl)cc(NS(C)(=O)=O)c2)cc1-c1ncccc1OCc1nccs1 [Example 279] | 53.3 | 81.1 | > 10000
Cc1cc(C(=O)Nc2cc(Cl)cc(NS(C)(=O)=O)c2)cn1-c1ncccc1OCc1nccs1 [Example 280] | 74.2 | 116 | > 10000
Cc1cc(C(=O)Nc2cc(Cl)cc(NS(C)(=O)=O)c2)cn1-c1ncccc1O [Example 281] | 483 | 367 | 7340
Cc1cc(C(=O)Nc2cc(Cl)cc(NS(C)(=O)=O)c2)cn1-c1ccc(N2CCN(C(=O)C(C)C)CC2)cn1 [Example 283] | 131 | 92.3 | > 10000
Cc1cc(C(=O)Nc2cc(Cl)cc(NS(C)(=O)=O)c2)cn1-c1ccc(N2CCN(C(=O)N(C)C)CC2)cn1 [Example 284] | 103 | 161 | > 10000
CS(=O)(=O)Nc1cc(Cl)cc(NC(=O)c2cc(-c3ccc(F)cn3)n(CC(F)F)c2)c1 [Example 286] | 2630 | 131 | > 10000
CC(O)c1cc(C(=O)Nc2cc(Cl)cc(NS(C)(=O)=O)c2)cn1-c1ccccn1 (stereo not drawn) [Example 287] | 232 | 165 | > 10000
COc1cc2cc(C(=O)Nc3cc(Cl)cc(NS(C)(=O)=O)c3)sc2cc1OC [Example 291] | 803 | 352 | > 10000
CCOc1cnc(-c2cc(C(=O)Nc3cc(Cl)cc(NS(C)(=O)=O)c3)sc2C)nc1 [Example 335] | 51.1 | 52.6 | > 10000
Cc1sc(C(=O)Nc2cc(Cl)cc(NS(C)(=O)=O)c2)cc1-c1ncc(F)cn1 [Example 336] | 84.6 | 146 | > 10000
CCOc1ccc(-c2csc(C(=O)Nc3cc(Cl)cc(NS(C)(=O)=O)c3)c2)nc1 [Example 339] | 91.8 | 341 | 5690
COc1cnc(-c2csc(C(=O)Nc3cc(Cl)cc(NS(C)(=O)=O)c3)c2)nc1 [Example 340] | 106 | 118 | > 10000
COc1cnc(-c2cc(C(=O)Nc3cc(Cl)cc(NS(C)(=O)=O)c3)sc2C)nc1 [Example 341] | 34.6 | 122 | > 10000
CCOc1cnc(-c2csc(C(=O)Nc3cc(Cl)cc(NS(C)(=O)=O)c3)c2)nc1 [Example 342] | 47.8 | 133 | > 10000
Cc1sc(C(=O)Nc2cc(Cl)cc(NS(C)(=O)=O)c2)cc1-c1ncc(OC(F)F)cn1 [Example 345] | 108 | 362 | 8450
Cc1cc(C(=O)Nc2cc(Cl)cc(NS(C)(=O)=O)c2)cn1-c1ccc(Cl)cn1 [Example 389] | 110 | 113 | 8040
Cc1cc(C(=O)Nc2cc(Cl)cc(NS(C)(=O)=O)c2)cn1-c1ccc(F)cn1 [Example 390] | 167 | 63.1 | > 10000
COc1ccc(-n2cc(C(=O)Nc3cc(Cl)cc(NS(C)(=O)=O)c3)cc2C)nc1 [Example 391] | 63 | 171 | > 10000
